Experimental findings from patent US10913733B2, “Substituted piperidines thiazolyl acetamides as glycosidase inhibitors and uses thereof” (priority 2015, dated 2021) are described below.

Where “and” joins values, the source holds several entries; their conditions need not be identical. Equal values may be shown once.

In the assay the target is human O-GlcNAcase (Homo sapiens (Human), UniProt O60502). The assay can be described thus: Assay for determination of KI values for inhibition of O-GlcNAcase activity. The class given is biochemical. The following applies: purified human O-GlcNAcase 0.7 nM; substrate 2 mM 4-Methylumbelliferyl N-acetyl-β-D-glucosaminide; pH 7.0; room temperature; Cheng-Prusoff; read-out: hOGA Ki. The protocol: Assay for Determination of KI Values for Inhibition of O-GlcNAcase Activity
Experimental procedure for kinetic analyses: Enzymatic reactions were carried out in a reaction containing 50 mM NaH2PO4, 100 mM NaCl and 0.1% BSA (pH 7.0) using 2 mM 4-Methylumbelliferyl N-acetyl-β-D-glucosaminide dihydrate (Sigma M2133) dissolved in ddH2O, as a substrate. The amount of purified human O-GlcNAcase enzyme used in the reaction was 0.7 nM. Test compound of varying concentrations was added to the enzyme prior to initiation of the reaction. The reaction was performed at room temperature in a 96-well plate and was initiated with the addition of substrate. The production of fluorescent product was measured every 60 sec for 45 min with a Tecan Infinite M200 plate-reader with excitation at 355 nm and emission detected at […], with 4-Methylumbelliferone (Sigma M1381) used to produce a standard curve. The slope of product production was determined for each concentration of compound tested and plotted, using standard curve fitting algorithms for sigmoidal dose response curves. The values for a four parameter logistic curve fit of the data were determined. KI values were determined using the Cheng-Prusoff equation; the Km of O-GlcNAcase for substrate was 0.2 mM.

In general, Ki refers to the equilibrium dissociation constant of an inhibitor or competing ligand from its target.

Sequence of human O-GlcNAcase (O60502 whole entry): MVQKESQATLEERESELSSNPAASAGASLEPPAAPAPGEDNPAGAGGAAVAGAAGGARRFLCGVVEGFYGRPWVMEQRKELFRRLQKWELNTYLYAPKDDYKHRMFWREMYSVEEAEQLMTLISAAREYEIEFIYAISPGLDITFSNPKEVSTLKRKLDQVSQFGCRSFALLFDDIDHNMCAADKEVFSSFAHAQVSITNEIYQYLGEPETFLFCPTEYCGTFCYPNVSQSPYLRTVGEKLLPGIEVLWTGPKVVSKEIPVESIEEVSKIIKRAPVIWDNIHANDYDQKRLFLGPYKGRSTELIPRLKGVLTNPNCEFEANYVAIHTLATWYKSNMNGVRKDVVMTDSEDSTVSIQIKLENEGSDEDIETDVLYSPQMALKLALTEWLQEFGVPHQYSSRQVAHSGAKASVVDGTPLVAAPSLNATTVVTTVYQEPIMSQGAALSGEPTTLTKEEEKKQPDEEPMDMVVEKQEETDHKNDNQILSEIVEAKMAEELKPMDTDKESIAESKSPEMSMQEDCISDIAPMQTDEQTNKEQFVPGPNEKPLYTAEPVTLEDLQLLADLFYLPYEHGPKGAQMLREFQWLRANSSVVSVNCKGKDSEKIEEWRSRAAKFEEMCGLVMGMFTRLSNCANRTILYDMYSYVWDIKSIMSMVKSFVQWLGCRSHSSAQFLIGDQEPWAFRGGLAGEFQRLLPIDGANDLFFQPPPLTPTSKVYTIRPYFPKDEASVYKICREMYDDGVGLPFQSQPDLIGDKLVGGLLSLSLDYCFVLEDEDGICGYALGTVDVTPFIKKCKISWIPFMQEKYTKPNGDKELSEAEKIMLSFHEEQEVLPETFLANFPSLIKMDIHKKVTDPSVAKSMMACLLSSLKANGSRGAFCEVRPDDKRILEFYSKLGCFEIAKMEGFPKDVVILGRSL

On to `CC(=O)Nc1ncc(CN2CC/C(=C\c3ccc(F)nc3)C[C@@H]2C)s1` [Example 54, (S,E)-N-(5-((4-((6-fluoropyridin-3-yl)methylene)-2-methylpiperidin-1-yl)methyl)thiazol-2-yl)acetamide], for which the Ki was determined as 11.8 nM. Next, `CC(=O)Nc1ncc(CN2CCC(=Cc3ccc(N)nc3)CC2)s1` [Example 6, N-[5-({4-[(6-aminopyridin-3-yl)methylidene]piperidin-1-yl}methyl)-1,3-thiazol-2-yl]acetamide]: 0.635 nM. For the compound `COc1ccc(/C=C2\CCN(Cc3cnc(NC(C)=O)s3)[C@H](C)C2)cc1` [Example 39, (R,E)-N-(5-((4-(4-methoxybenzylidene)-2-methylpiperidin-1-yl)methyl)thiazol-2-yl)acetamide], the Ki was determined as 126 nM. Next, `CC(=O)Nc1ncc(CN2CCC(=Cc3ccc(S(=O)(=O)N(C)C)cc3)CC2)s1` [Example 17, N-(5-((4-(4-(N,N-dimethylsulfamoyl)benzylidene)piperidin-1-yl)methyl)thiazol-2-yl)acetamide]: 0.0954 nM; `CC(=O)Nc1ncc(CN2CCC(=Cc3ccc(CCF)cc3)CC2)s1` [Example 27, N-(5-((4-(4-(2-fluoroethyl)-benzylidene)piperidin-1-yl)methyl)thiazol-2-yl)acetamide]: 0.411 nM.

Regarding `COc1ccc(C=C2CCN(Cc3cnc(NC(C)=O)s3)CC2)cc1` [Example 46, N-[5-({4-[(4-methoxyphenyl)methylidene]piperidin-1-yl}methyl)-1,3-thiazol-2-yl]acetamide], the Ki came out at 2 nM. Take `CC(=O)N(C)c1ncc(CN2CCC(=Cc3ccc(CCF)cc3)CC2)s1` [Example 28, N-(5-((4-(4-(2-fluoroethyl)benzylidene)-piperidin-1-yl)methyl)thiazol-2-yl)-N-methylacetamide]: the Ki turned out to be 5.71 nM. As to `CC(=O)Nc1ncc(CN2CCC(=Cc3ccc(OC(=O)OC(C)(C)C)cc3)CC2)s1` [Example 5, 4-((1-((2-acetamidothiazol-5-yl)methyl)piperidin-4-ylidene)methyl)phenyl tert-butyl carbonate], the Ki is 3.53 nM. Next, `CC(=O)Nc1ncc(CN2CC/C(=C/c3ccc(F)nc3)C[C@@H]2C)s1` [Example 52, (S,Z)—N-(5-((4-((6-fluoropyridin-3-yl)methylene)-2-methylpiperidin-1-yl)methyl)thiazol-2-yl)acetamide]: 0.389 nM; `CC(=O)Nc1ncc(CN2CCC(=Cc3ccc(OCCF)cc3)CC2)s1` [Example 42, N-{5-[(4-{[4-(2-fluoroethoxy)phenyl]methylidene}piperidin-1-yl)methyl]-1,3-thiazol-2-yl}acetamide]: 0.625 nM; `CC(=O)Nc1ncc(CN2CCC(=Cc3ccc(C(=O)O)cc3)CC2)s1` [Example 29, 4-[(1-{[2-(acetylamino)-1,3-thiazol-5-yl]methyl}piperidin-4-ylidene)methyl]benzoic acid]: 0.324 nM. The result for `COc1ccccc1C=C1CCN(Cc2cnc(NC(C)=O)s2)CC1` [Example 47, N-(5-((4-(2-methoxybenzylidene)piperidin-1-yl)methyl)thiazol-2-yl)acetamide] reads 2.45 nM. Next, `CC(=O)Nc1ncc(CN2CCC(=Cc3cccc(CO)c3)CC2)s1` [Example 7, N-(5-((4-(3-(hydroxymethyl)benzylidene)piperidin-1-yl)methyl)thiazol-2-yl)acetamide]: 0.69 nM. For `COc1ccc(/C=C2\CCN(Cc3cnc(NC(C)=O)s3)[C@@H](C)C2)cc1` [Example 41, (S,E)-N-(5-((4-(4-methoxybenzylidene)-2-methylpiperidin-1-yl)methyl)thiazol-2-yl)acetamide], the Ki stood at 9.61 nM. The result for `CC(=O)Nc1ncc(CN2CC/C(=C\c3ccc(F)nc3)C[C@H]2C)s1` [Example 53, (R,E)-N-(5-((4-((6-fluoropyridin-3-yl)methylene)-2-methylpiperidin-1-yl)methyl)thiazol-2-yl)acetamide] reads 123 nM; that for `COc1cc(C=C2CCN(Cc3cnc(NC(C)=O)s3)CC2)ccc1O` [Example 22, N-[5-({4-[(4-hydroxy-3-methoxyphenyl)methylidene]piperidin-1-yl}methyl)-1,3-thiazol-2-yl]acetamide], 0.634 nM; that for `CC(=O)Nc1ncc(CN2CC/C(=C/c3ccccc3)C[C@H]2C)s1` [Example 35, (R,Z)-N-(5-((4-benzylidene-2-methylpiperidin-1-yl)methyl)thiazol-2-yl)acetamide], 56.6 nM. Take `CC(=O)Nc1ncc(CN2CCC(=Cc3ccc([N+](=O)[O-])nc3)CC2)s1` [Example 49]: the Ki was found to be 1.6 nM.

For `CC(=O)Nc1ncc(CN2CCC(=Cc3cncnc3)CC2)s1` [Example 15, N-(5-((4-(pyrimidin-5-ylmethylene)piperidin-1-yl)methyl)thiazol-2-yl)acetamide], the Ki was determined as 3.37 nM.

For `CC(=O)Nc1ncc(CN2CCC(=Cc3ccc(F)cc3)CC2)s1` [Example 32, N-[5-({4-[(4-fluorophenyl)methylidene]piperidin-1-yl}methyl)-1,3-thiazol-2-yl]acetamide], the Ki was found to be 2.7 nM. Consider `CC(=O)Nc1ncc(CN2CCC(=Cc3ccc(OC(F)(F)F)cc3)CC2)s1` [Example 11, N-(5-((4-(4-(trifluoromethoxy)benzylidene)-piperidin-1-yl)methyl)thiazol-2-yl)acetamide], for which the Ki was found to be 3.15 nM. For the compound `CC(=O)Nc1ncc(CN2CC/C(=C\c3ccccc3)C[C@@H]2C)s1` [Example 37, (S,E)-N-(5-((4-benzylidene-2-methylpiperidin-1-yl)methyl)thiazol-2-yl)acetamide], the inhibition constant Ki is 29.8 nM. Consider `CC(=O)Nc1ncc(CN2CCC(=Cc3ccc(CF)cc3)CC2)s1` [Example 26, N-(5-((4-(4-(fluoromethyl)benzylidene)piperidin-1-yl)methyl)thiazol-2-yl)acetamide], for which the Ki was 0.167 nM and 0.0753 nM.
